The numbers were not newly measured in patent US20110111002A1, “TRANSPORT AND DELIVERY OF GLUTATHIONE INTO HUMAN CELLS USING GOLD NANOPARTICLES” (priority 2009, published 2011), which cites them from elsewhere.

Structures are written as SMILES.

The test system of series [1] is intracellular glutathione concentration. The conditions noted are these: versus the three component amino acids (precursors).
For series [2] the following is noted: humans, injectable.
Another series deals with cell type tested. The conditions noted are these: irrespective of the cell type tested.

As for `N[C@@H](CCC(=O)N[C@@H](CS)C(=O)NCC(=O)O)C(=O)O` [GSH, L-gammaglutamyl-L-cysteinylglycine], in series [1], the “efficiency in raising the intracellular glutathione concentration compared to the precursors” value is “three times more efficient”. On to `O=C([O-])CC([S-])C(=O)[O-].[Au+].[Na+].[Na+]` (stereo not drawn) [Myochrisine], for which, in series [2], the “tolerance of high concentrations” value was “excellent tolerance”.

As for `O=C([O-])CC([S-])C(=O)[O-].[Au+].[Na+].[Na+]` (stereo not drawn) [Tauredon], in the series on cell type tested, the toxicity entry is given as “comparatively nontoxic”.
